Data from US8129532B2, “Amino(oligo)thiophene dyes, preparation thereof, and optical methods of use” (The University of Connecticut, priority 2007, dated 2012).

Tests used:
[1] = One-photon absorption and emission spectra in multilamellar lipid vesicles, water and ethanol; format: physicochemical; settings: for Absorbance MLV: multilamellar lipid vesicles; for 1PF Abs. Max / 1PF Em. Max: one photon, soybean multi-lamellar lipid vesicles
Text: […] The column indicating relative signal change for one-photon fluorescence also lists the excitation light source used and the lower bounds of the long-pass emission detected.
Absorption and emission spectra were obtained for a series of dyes with different acceptors: pyridinium (PY-1261), quinolinium (PY-212), and acridinium (PY-2240).

[2] = One-photon fluorescence relative signal change per 100 mV; settings: excitation / long-pass emission (nm) given
Text: The left-most data columns of Table 1 are the absorption and emission maxima for one photon fluorescence in soybean multi-lamellar lipid vesicles used to mimic the membrane environment. The column indicating relative signal change for one-photon fluorescence also lists the excitation light source used and the lower bounds of the long-pass emission detected.

[3] = test system: NIE-115 mouse neuroblastoma; test: SHG and 2PF voltage sensitivity, 50 mV step, slow switching protocol on patch-clamped neuroblastoma cell; format: cell-based; settings: comparator named in the sentence (PY-1266; PY-1268)
Text: For full details of our non-linear imaging microscope, we refer the reader to previously published descriptions. A. C. Millard, P. J. Campagnola, W. Mohler, A. Lewis, and L. M. Loew, “Second Harmonic Imaging Microscopy,” Meth. Enzymol. 361, 47-69 (2003); Millard, A. C., L. Jin, and L. M. Loew, “Second Harmonic Generation Imaging Microscopy with a High Power Ultrafast Fiber Laser,”Commercial and Biomedical Applications of Ultrafast Lasers. 5714-5716, 92-98 (2005); A. C. Millard, L. Jin, M.-D. Wei, J. P. Wuskell, A. Lewis, and L. M. Loew, “Sensitivity of Second Harmonic Generation from Styryl Dyes to Transmembrane Potential,” Biophys. J. 86, 1169-1176 (2004). Our current microscope combines a Fluoview (Olympus) scan-head and an Axiovert (Zeiss) inverted microscope constructed for multiple imaging methodologies including wide-field, one-photon excitation fluorescence imaging, as well as SHG and 2PF imaging. Our laser sources include a Mira (Coherent) Ti:sapphire laser and a Femtopower (Fianium) fiber laser operating at 1064 nm. […] Fluorescence is imaged (for linear imaging) or collected (for non-linear imaging) back through the excitation objective, while SHG is collected in the forward, transmitted light direction by a condenser, either 0.8 NA or 0.55 NA (Zeiss). […]

[4] = test system: NIE-115 mouse neuroblastoma; test: Time-dependence (kinetics) of SHG and 2PF signal change after voltage-clamp step; format: cell-based; settings: for SHG Kinetics (exponential time constant): time resolution 5 ms
Text: For full details of our non-linear imaging microscope, we refer the reader to previously published descriptions. A. C. Millard, P. J. Campagnola, W. Mohler, A. Lewis, and L. M. Loew, “Second Harmonic Imaging Microscopy,” Meth. Enzymol. 361, 47-69 (2003); Millard, A. C., L. Jin, and L. M. Loew, “Second Harmonic Generation Imaging Microscopy with a High Power Ultrafast Fiber Laser,”Commercial and Biomedical Applications of Ultrafast Lasers. 5714-5716, 92-98 (2005); A. C. Millard, L. Jin, M.-D. Wei, J. P. Wuskell, A. Lewis, and L. M. Loew, “Sensitivity of Second Harmonic Generation from Styryl Dyes to Transmembrane Potential,” Biophys. J. 86, 1169-1176 (2004). Our current microscope combines a Fluoview (Olympus) scan-head and an Axiovert (Zeiss) inverted microscope constructed for multiple imaging methodologies including wide-field, one-photon excitation fluorescence imaging, as well as SHG and 2PF imaging. Our laser sources include a Mira (Coherent) Ti:sapphire laser and a Femtopower (Fianium) fiber laser operating at 1064 nm. Millard, A. C., L. Jin, and L. M. Loew, “Second Harmonic Generation Imaging Microscopy with a High Power Ultrafast Fiber Laser,”Commercial and Biomedical Applications of Ultrafast Lasers. 5714-5716, 92-98 (2005). For excitation, we routinely use an IR-Achroplan (Zeiss) 40×, 0.8 NA water-immersion objective though for shorter wavelengths we also use an A-Plan (Zeiss) 40×, 0.65 NA air objective. Fluorescence is imaged (for linear imaging) or collected (for non-linear imaging) back through the excitation objective, while SHG is collected in the forward, transmitted light direction by a condenser, either 0.8 NA or 0.55 NA (Zeiss). For optimal collection, the numerical aperture of the condenser should be at least 1/√2 of the numerical aperture of the excitation objective (L. Moreaux, O. Sandre, S. Charpak, M. Blanchard-Desce, and J. Mertz, “Coherent Scattering in Multi-Harmonic Light Microscopy,” Biophys. J. 80, 1568-1574 (2001); L. Moreaux, O. Sandre, and J. Mertz. “Membrane Imaging by Second Harmonic Generation Microscopy,” J. Opt. Soc. Am. B. 17, 1685-1694 (2000)), though in practice a condenser of slightly lower numerical aperture will often suffice. Since the wavelength of second harmonic light is precisely half that of the excitation light, the choice of filter for SHG imaging is greatly simplified and the primary concern is the blocking of the excitation light that is also transmitted through the sample as well as fluorescence that is emitted forwards.
NIE-115 mouse neuroblastoma were cultured in DMEM with 10% fetal bovine serum and 1% antibiotic-antimycotic (Invitrogen, Carlsbad, Calif.) in a 60 mm plastic dish (353002, Becton Dickinson, Franklin Lakes, N.J.). The culture was maintained at 37° C. with 5% CO2 for a period of 48 hours prior to experimentation.
For experimentation the growth medium was replaced with 3 mL of Earle's Balanced Salt Solution (EBSS, Sigma, St. Louis, Mo.) with 20 mM HEPES (Merck Biosciences AG, Laufelfingen, Switzerland). The internal buffer, injected into the patch pipette, was a potassium aspartate (140 mM, Sigma, St. Louis, Mo.), sodium chloride (5 mM, Sigma, St. Louis, Mo.) and HEPES (10 mM) solution at a pH of 7.35. The pH was adjusted with potassium hydroxide and hydrochloric acid.
For characterizing the voltage-sensitivity of SHG and 2PF, we used a slow (˜0.1 Hz) switching protocol as previously described (A. C. Millard, P. J. Campagnola, W. Mohler, A. Lewis, and L. M. Loew, “Second Harmonic Imaging Microscopy,” Meth. Enzymol. 361, 47-69 (2003); Millard, A. C., L. Jin, and L. M. Loew, “Second Harmonic Generation Imaging Microscopy with a High Power Ultrafast Fiber Laser,” Commercial and Biomedical Applications of Ultrafast Lasers. 5714-5716, 92-98 (2005); A. C. Millard, L. Jin, M.-D. Wei, J. P. Wuskell, A. Lewis, and L. M. Loew, “Sensitivity of Second Harmonic Generation from Styryl Dyes to Transmembrane Potential,” Biophys. J. 86, 1169-1176 (2004)) with a 50 mV step. […]

SMILES	Absorbance ethanol [1] [nm]	Absorbance MLV [1] [nm]	1PF Abs. Max [1] [nm]	1PF Em. Max [1] [nm]	Absorbance water [1] [nm]	1PF Change (ΔF/F-100 mv) [2]	SHG signal sensitivity relative to another dye [3]	SHG kinetics, in words [4]	SHG Kinetics (exponential time constant) [4] [ms]
CCN(CC)c1ccc(-c2ccc(/C=C/c3cc[n+](CCC[N+](CC)(CC)CC)cc3)s2)s1 [PY-1261, Di-2-BTEPPTEA]	614	547	547	686	539	5.0E−002; 625/>715 ΔF/F-100 mv	more than five times larger	instantaneous	–
CCCCN(CCCC)c1ccc(-c2ccc(/C=C/c3cc[n+](CCC[N+](CC)(CC)CC)cc3)s2)s1 [PY-1266, Di-4-BTEPPTEA]	624	552	552	694	555	1.0E−001; 635/>715 ΔF/F-100 mv	–	slower kinetic response	23 ± 2
CCCN(CCC)c1ccc(-c2ccc(/C=C/c3cc[n+](CCC[N+](CC)(CC)CC)cc3)s2)s1 [PY-1286, Di-3-BTEPPTEA]	616	547	547	692	567	1.8E−001; 640/>715 ΔF/F-100 mv	–	slower kinetic response	27 ± 1
